Results published in ChEMBL document CHEMBL4507275, “Data for DCP probe BI-2545” (2021).

Legend:
[1] = biological target: Calcium/calmodulin-dependent protein kinase type IV (Homo sapiens) (UniProt Q16566); details: Compound concentration 1000.0 nM
[2] = biological target: Serine/threonine-protein kinase N2 (Homo sapiens) (UniProt Q16513); details: Compound concentration 1000.0 nM
[3] = biological target: Bone morphogenetic protein receptor type-2 (Homo sapiens) (UniProt Q13873); details: Compound concentration 1000.0 nM
[4] = tested on: Receptor-type tyrosine-protein kinase FLT3 (Homo sapiens), P36888 [R834Q]; details: Compound concentration 1000.0 nM
[5] = biological target: Ribosomal protein S6 kinase alpha-6 (Homo sapiens) (UniProt Q9UK32); details: Compound concentration 1000.0 nM
[6] = tested on: Proto-oncogene tyrosine-protein kinase receptor Ret (Homo sapiens), P07949 [V804M]; details: Compound concentration 1000.0 nM
[7] = biological target: Tyrosine-protein kinase SYK (Homo sapiens) (UniProt P43405); details: Compound concentration 1000.0 nM
[8] = tested on: Phosphatidylinositol 4,5-bisphosphate 3-kinase catalytic subunit alpha isoform (Homo sapiens), P42336 [E542K]; details: Compound concentration 1000.0 nM
[9] = biological target: Serine/threonine-protein kinase TAO1 (Homo sapiens) (UniProt Q7L7X3); details: Compound concentration 1000.0 nM
[10] = biological target: Serine/threonine-protein kinase 32A (Homo sapiens) (UniProt Q8WU08); details: Compound concentration 1000.0 nM
[11] = biological target: cAMP-dependent protein kinase catalytic subunit beta (Homo sapiens) (UniProt P22694); details: Compound concentration 1000.0 nM
[12] = biological target: NT-3 growth factor receptor (Homo sapiens) (UniProt Q16288); details: Compound concentration 1000.0 nM
[13] = biological target: Serine/threonine-protein kinase WNK4 (Homo sapiens) (UniProt Q96J92); details: Compound concentration 1000.0 nM
[14] = biological target: Mitogen-activated protein kinase kinase kinase 20 (Homo sapiens) (UniProt Q9NYL2); details: Compound concentration 1000.0 nM
[15] = biological target: 5-hydroxytryptamine receptor 1B (Homo sapiens) (UniProt P28222); details: Compound concentration 10.0 uM
[16] = biological target: Tyrosine-protein kinase CSK (Homo sapiens) (UniProt P41240); details: Compound concentration 1000.0 nM
[17] = biological target: Citron Rho-interacting kinase (Homo sapiens) (UniProt O14578); details: Compound concentration 1000.0 nM
[18] = biological target: Protein kinase C delta type (Homo sapiens) (UniProt Q05655); details: Compound concentration 1000.0 nM
[19] = tested on: Epidermal growth factor receptor (Homo sapiens), P00533 [G719C]; details: Compound concentration 1000.0 nM
[20] = biological target: Mitogen-activated protein kinase 13 (Homo sapiens) (UniProt O15264); details: Compound concentration 1000.0 nM
[21] = biological target: Fibroblast growth factor receptor 1 (Homo sapiens) (UniProt P11362); details: Compound concentration 1000.0 nM
[22] = biological target: Discoidin domain-containing receptor 2 (Homo sapiens) (UniProt Q16832); details: Compound concentration 1000.0 nM
[23] = biological target: Serine/threonine-protein kinase tousled-like 1 (Homo sapiens) (UniProt Q9UKI8); details: Compound concentration 1000.0 nM
[24] = biological target: Mitogen-activated protein kinase kinase kinase 11 (Homo sapiens) (UniProt Q16584); details: Compound concentration 1000.0 nM
[25] = biological target: Bone morphogenetic protein receptor type-1B (Homo sapiens) (UniProt O00238); details: Compound concentration 1000.0 nM
[26] = biological target: Dual specificity mitogen-activated protein kinase kinase 4 (Homo sapiens) (UniProt P45985); details: Compound concentration 1000.0 nM
[27] = biological target: Mitogen-activated protein kinase 1 (Homo sapiens) (UniProt P28482); details: Compound concentration 1000.0 nM
[28] = biological target: Mitogen-activated protein kinase 7 (Homo sapiens) (UniProt Q13164); details: Compound concentration 1000.0 nM
[29] = biological target: Histamine H3 receptor (Homo sapiens) (UniProt Q9Y5N1); details: Compound concentration 10.0 uM
[30] = biological target: Serine/threonine-protein kinase mTOR (Homo sapiens) (UniProt P42345); details: Compound concentration 1000.0 nM
[31] = tested on: Epidermal growth factor receptor (Homo sapiens), P00533 [T790M]; details: Compound concentration 1000.0 nM
[32] = biological target: Insulin receptor-related protein (Homo sapiens) (UniProt P14616); details: Compound concentration 1000.0 nM
[33] = biological target: Dual specificity tyrosine-phosphorylation-regulated kinase 2 (Homo sapiens) (UniProt Q92630); details: Compound concentration 1000.0 nM
[34] = biological target: Mitogen-activated protein kinase 14 (Homo sapiens) (UniProt Q16539); details: Compound concentration 1000.0 nM
[35] = biological target: Mitogen-activated protein kinase 3 (Homo sapiens) (UniProt P27361); details: Compound concentration 1000.0 nM
[36] = biological target: Sodium-dependent serotonin transporter (Homo sapiens) (UniProt P31645); details: Compound concentration 10.0 uM
[37] = biological target: Mitogen-activated protein kinase kinase kinase kinase 4 (Homo sapiens) (UniProt O95819); details: Compound concentration 1000.0 nM
[38] = biological target: Serine/threonine-protein kinase B-raf (Homo sapiens) (UniProt P15056); details: Compound concentration 1000.0 nM
[39] = biological target: Ribosomal protein S6 kinase alpha-3 (Homo sapiens) (UniProt P51812); details: Compound concentration 1000.0 nM
[40] = biological target: BDNF/NT-3 growth factors receptor (Homo sapiens) (UniProt Q16620); details: Compound concentration 1000.0 nM
[41] = biological target: Dual specificity protein kinase CLK1 (Homo sapiens) (UniProt P49759); details: Compound concentration 1000.0 nM
[42] = biological target: Serine/threonine-protein kinase 17B (Homo sapiens) (UniProt O94768); details: Compound concentration 1000.0 nM
[43] = biological target: Serine/threonine-protein kinase MARK1 (Homo sapiens) (UniProt Q9P0L2); details: Compound concentration 1000.0 nM
[44] = biological target: MAP/microtubule affinity-regulating kinase 3 (Homo sapiens) (UniProt P27448); details: Compound concentration 1000.0 nM
[45] = tested on: Tyrosine-protein kinase ABL1 (Homo sapiens), P00519 [M351T]; details: Compound concentration 1000.0 nM

Chain of MAP/microtubule affinity-regulating kinase 3 (Homo sapiens) (P27448 whole entry, looked up): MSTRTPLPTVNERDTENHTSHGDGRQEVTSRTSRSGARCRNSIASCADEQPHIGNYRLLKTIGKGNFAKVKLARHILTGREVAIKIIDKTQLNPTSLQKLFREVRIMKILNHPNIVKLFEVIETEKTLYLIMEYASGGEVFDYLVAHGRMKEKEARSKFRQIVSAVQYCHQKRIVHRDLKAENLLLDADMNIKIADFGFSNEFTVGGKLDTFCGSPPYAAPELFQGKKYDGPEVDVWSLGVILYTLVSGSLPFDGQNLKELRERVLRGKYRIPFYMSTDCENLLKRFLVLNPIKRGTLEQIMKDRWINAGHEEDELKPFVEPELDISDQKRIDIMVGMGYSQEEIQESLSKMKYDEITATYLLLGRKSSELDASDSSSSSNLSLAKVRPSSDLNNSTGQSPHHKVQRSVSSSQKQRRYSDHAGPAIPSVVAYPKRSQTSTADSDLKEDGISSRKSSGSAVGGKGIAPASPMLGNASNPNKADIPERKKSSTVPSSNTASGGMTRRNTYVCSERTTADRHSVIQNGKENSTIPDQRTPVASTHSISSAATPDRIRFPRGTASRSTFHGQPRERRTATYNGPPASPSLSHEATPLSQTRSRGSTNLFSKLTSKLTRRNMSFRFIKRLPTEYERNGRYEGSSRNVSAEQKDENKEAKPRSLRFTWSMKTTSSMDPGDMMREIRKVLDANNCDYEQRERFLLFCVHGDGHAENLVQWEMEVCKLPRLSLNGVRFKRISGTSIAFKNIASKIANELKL
Chain of 5-hydroxytryptamine receptor 1B (Homo sapiens) (P28222 whole entry): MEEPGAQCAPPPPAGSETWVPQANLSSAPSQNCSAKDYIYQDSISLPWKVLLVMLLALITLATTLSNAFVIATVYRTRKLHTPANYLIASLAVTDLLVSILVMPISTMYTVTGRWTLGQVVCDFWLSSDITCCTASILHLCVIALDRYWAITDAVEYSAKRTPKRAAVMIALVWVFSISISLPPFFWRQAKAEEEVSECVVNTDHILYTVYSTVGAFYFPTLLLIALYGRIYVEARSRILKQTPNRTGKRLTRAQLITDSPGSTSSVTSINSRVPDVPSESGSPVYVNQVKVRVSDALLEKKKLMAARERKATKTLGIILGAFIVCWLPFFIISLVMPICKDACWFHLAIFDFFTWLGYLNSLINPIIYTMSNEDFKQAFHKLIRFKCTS
Chain of Dual specificity mitogen-activated protein kinase kinase 4 (Homo sapiens) (P45985 whole entry): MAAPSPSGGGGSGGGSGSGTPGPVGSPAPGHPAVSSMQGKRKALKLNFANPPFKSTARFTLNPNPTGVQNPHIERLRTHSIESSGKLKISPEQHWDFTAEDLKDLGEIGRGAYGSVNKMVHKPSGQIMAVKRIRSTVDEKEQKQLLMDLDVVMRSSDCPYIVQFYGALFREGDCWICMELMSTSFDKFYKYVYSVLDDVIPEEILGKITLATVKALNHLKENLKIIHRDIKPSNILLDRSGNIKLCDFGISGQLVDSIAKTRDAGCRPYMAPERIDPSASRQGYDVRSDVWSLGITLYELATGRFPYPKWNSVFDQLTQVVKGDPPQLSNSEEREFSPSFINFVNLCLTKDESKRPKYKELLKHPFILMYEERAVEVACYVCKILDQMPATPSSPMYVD
Chain of Citron Rho-interacting kinase (Homo sapiens) (O14578 whole entry): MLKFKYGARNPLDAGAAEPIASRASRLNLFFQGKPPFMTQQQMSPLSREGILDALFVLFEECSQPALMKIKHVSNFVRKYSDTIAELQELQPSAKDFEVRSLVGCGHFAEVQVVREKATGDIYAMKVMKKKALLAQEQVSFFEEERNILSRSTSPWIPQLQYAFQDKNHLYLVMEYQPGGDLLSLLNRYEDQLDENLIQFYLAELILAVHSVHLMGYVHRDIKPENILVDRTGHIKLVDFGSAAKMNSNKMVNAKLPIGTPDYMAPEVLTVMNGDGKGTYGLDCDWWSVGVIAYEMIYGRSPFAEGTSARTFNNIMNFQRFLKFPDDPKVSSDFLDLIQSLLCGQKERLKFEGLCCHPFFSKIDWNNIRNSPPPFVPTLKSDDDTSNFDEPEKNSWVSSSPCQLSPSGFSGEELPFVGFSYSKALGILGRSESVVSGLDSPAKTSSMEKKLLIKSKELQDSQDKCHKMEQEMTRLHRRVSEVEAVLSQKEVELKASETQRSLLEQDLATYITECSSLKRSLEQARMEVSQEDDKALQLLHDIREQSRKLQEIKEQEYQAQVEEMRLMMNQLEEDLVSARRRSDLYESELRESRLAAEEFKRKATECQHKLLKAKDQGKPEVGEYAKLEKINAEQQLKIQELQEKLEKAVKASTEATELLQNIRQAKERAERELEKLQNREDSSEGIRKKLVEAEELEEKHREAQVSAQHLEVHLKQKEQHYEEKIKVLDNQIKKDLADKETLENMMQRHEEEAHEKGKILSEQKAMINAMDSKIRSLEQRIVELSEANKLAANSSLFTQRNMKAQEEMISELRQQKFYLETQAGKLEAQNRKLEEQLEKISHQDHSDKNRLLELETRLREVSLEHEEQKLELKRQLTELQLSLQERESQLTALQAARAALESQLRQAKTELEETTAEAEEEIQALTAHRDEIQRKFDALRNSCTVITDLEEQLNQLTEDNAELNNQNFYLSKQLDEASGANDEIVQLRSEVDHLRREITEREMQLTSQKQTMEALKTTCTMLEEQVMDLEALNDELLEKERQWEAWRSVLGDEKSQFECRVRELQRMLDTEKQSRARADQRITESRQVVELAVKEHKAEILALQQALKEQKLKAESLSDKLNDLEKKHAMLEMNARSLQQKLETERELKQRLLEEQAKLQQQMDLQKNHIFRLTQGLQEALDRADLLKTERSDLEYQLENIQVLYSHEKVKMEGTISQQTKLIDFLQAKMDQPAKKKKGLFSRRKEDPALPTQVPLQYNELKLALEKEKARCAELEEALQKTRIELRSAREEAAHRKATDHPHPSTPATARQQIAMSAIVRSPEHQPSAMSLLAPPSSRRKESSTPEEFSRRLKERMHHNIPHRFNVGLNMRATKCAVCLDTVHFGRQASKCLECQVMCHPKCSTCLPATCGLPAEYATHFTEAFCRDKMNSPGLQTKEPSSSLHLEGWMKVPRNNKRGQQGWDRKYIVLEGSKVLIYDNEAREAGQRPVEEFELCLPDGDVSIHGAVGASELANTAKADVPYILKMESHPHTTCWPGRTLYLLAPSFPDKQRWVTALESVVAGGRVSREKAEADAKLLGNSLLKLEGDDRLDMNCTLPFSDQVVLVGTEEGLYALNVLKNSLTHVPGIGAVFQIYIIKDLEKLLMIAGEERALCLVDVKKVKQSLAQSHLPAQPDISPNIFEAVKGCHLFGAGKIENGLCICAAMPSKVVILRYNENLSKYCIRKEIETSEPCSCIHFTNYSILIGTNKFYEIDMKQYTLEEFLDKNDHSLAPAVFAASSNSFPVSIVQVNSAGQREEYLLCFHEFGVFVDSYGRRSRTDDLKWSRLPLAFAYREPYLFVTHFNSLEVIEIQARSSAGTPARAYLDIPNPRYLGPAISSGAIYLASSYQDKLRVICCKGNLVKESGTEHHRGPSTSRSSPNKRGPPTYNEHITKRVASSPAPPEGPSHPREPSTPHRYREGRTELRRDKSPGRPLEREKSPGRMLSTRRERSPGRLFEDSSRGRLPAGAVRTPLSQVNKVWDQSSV
Chain of Discoidin domain-containing receptor 2 (Homo sapiens) (Q16832 whole entry, the tested form may be a part): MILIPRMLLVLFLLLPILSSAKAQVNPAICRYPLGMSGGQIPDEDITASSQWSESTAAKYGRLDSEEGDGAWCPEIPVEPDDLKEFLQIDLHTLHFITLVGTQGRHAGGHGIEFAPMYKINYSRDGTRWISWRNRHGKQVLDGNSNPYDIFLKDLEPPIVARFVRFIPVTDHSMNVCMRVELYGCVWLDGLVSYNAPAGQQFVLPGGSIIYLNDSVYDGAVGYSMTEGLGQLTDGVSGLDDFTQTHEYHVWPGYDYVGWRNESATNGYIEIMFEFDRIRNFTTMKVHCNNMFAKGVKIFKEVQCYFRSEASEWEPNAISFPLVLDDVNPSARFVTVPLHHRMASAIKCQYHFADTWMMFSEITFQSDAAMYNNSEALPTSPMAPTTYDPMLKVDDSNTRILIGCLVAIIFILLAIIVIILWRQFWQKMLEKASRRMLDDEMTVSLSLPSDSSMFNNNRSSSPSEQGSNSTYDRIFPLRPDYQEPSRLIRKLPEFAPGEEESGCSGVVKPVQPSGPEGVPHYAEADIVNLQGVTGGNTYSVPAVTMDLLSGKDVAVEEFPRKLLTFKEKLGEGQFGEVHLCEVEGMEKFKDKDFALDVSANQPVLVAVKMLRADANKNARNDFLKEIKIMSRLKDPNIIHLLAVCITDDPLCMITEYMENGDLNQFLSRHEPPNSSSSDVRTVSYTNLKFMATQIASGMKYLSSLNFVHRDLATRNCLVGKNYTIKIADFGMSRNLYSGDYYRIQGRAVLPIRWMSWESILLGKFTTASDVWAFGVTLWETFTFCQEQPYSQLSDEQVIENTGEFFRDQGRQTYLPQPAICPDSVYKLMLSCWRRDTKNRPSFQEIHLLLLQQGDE
Chain of Serine/threonine-protein kinase 17B (Homo sapiens) (O94768 whole entry): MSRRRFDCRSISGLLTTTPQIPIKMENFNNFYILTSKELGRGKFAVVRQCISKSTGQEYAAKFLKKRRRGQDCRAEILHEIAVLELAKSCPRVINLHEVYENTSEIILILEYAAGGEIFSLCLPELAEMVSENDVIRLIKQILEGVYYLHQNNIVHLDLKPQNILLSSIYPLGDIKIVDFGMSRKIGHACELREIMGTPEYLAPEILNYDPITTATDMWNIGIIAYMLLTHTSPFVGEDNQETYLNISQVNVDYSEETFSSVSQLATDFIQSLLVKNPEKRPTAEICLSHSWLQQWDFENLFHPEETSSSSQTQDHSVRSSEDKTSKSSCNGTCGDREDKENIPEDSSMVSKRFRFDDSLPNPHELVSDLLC

O=C(NC[C@@H]1[C@H]2CN(C(=O)OCc3cc(C(F)(F)F)cc(C(F)(F)F)c3)C[C@@H]12)c1ccc2[nH]nnc2c1 [BI 2545]
inactive: residual activity [1] 100% | residual activity [2] 93% | residual activity [3] 90% | residual activity [4] 88% | residual activity [5] 67% | residual activity [6] 88% | residual activity [7] 100% | residual activity [8] 75% | residual activity [9] 78% | residual activity [10] 72% | residual activity [11] 100% | residual activity [12] 91% | residual activity [13] 89% | residual activity [14] 86% | inhibition [15] 17.9% | residual activity [16] 96% | residual activity [17] 100% | residual activity [18] 93% | residual activity [19] 100% | residual activity [20] 100% | residual activity [21] 90% | residual activity [22] 82% | residual activity [23] 68% | residual activity [24] 99% | residual activity [25] 95% | residual activity [26] 95% | residual activity [27] 100% | residual activity [28] 100% | inhibition [29] -5.26% | residual activity [30] 100% | residual activity [31] 78% | residual activity [32] 83% | residual activity [33] 77% | residual activity [34] 100% | residual activity [35] 100% | inhibition [36] -9.34% | residual activity [37] 100% | residual activity [38] 98% | residual activity [39] 89% | residual activity [40] 99% | residual activity [41] 87% | residual activity [42] 91% | residual activity [43] 98% | residual activity [44] 100% | residual activity [45] 98%

Cc1nccc(COC(=O)N2C[C@@H]3[C@@H](CNC(=O)c4ccc5[nH]nnc5c4)[C@@H]3C2)n1 [BI 3017]
inactive: residual activity [1] 95% | residual activity [2] 100% | residual activity [3] 81% | residual activity [4] 85% | residual activity [5] 100% | residual activity [6] 100% | residual activity [7] 100% | residual activity [8] 86% | residual activity [9] 85% | residual activity [10] 94% | residual activity [11] 98% | residual activity [12] 90% | residual activity [13] 100% | residual activity [14] 90% | inhibition [15] 4.4% | residual activity [16] 99% | residual activity [17] 100% | residual activity [18] 95% | residual activity [19] 100% | residual activity [20] 98% | residual activity [21] 91% | residual activity [22] 77% | residual activity [23] 87% | residual activity [24] 100% | residual activity [25] 100% | residual activity [26] 100% | residual activity [27] 100% | residual activity [28] 98% | inhibition [29] 9.03% | residual activity [30] 96% | residual activity [31] 91% | residual activity [32] 100% | residual activity [33] 94% | residual activity [34] 100% | residual activity [35] 92% | inhibition [36] -3.25% | residual activity [37] 99% | residual activity [38] 84% | residual activity [39] 86% | residual activity [40] 100% | residual activity [41] 100% | residual activity [42] 85% | residual activity [43] 84% | residual activity [44] 95% | residual activity [45] 95%
